The NIST ThermoML archive (doi:10.1016/j.fluid.2016.02.011)

Columns and labels:
[1] = refractive index (Na D-line) (dimensionless); settings: 100 kPa, Liquid, minimum deviations angle
[2] = refractive index (Na D-line) (dimensionless); xn = mol fraction of the nth substance listed; settings: 100 kPa, Liquid, minimum deviations angle, x1 = 1

CCCCCC[n+]1ccn(C)c1.O=S(=O)([N-]S(=O)(=O)C(F)(F)F)C(F)(F)F
[1]
Settings | refractive index
282.99 K | 1.4329
284.26 K | 1.4324
285.8 K | 1.432
286.91 K | 1.4317
288.05 K | 1.4313
289.17 K | 1.431
290.22 K | 1.4307
291.28 K | 1.4304
292.38 K | 1.4301
293.39 K | 1.4298

CCCCCC[n+]1ccn(C)c1.O=S(=O)([N-]S(=O)(=O)C(F)(F)F)C(F)(F)F + Brc1ccccc1
[2]
Settings | refractive index
282.99 K | 1.4329
284.26 K | 1.4324
285.8 K | 1.432
286.91 K | 1.4317
288.05 K | 1.4313
289.17 K | 1.431
290.22 K | 1.4307
291.28 K | 1.4304
292.38 K | 1.4301
293.39 K | 1.4298

Brc1ccccc1 [bromobenzene]
[1]
Settings | refractive index
283 K | 1.5612
284.4 K | 1.5605
285.75 K | 1.5598
286.96 K | 1.5591
287.98 K | 1.5585
288.99 K | 1.558
290.11 K | 1.5574
291.22 K | 1.5568
292.32 K | 1.5563
293.32 K | 1.5557
